Measured values reported in US9126982B2, “Heterocyclic compounds, medicaments containing them, use and processes for the preparation thereof” (Boehringer Ingelheim International GmbH, priority 2013, dated 2015).
Where two headings read alike, the source gives them in different places.

Columns and labels:
[1] = Permeability and efflux in CALU-3 cells; assay type: in vitro ADME; settings: human, Papp basal-to-apical, CALU-3 monolayers, pH 7.4, 37° C., 10 μM compound, read-out: P BA
Description: Permeability and Efflux in CALU-3 Cells:
Permeability measurements across polarized, confluent CALU-3 cell monolayers grown on permeable filter supports are used to provide information on the potential of a compound to pass the lung epithelium.
CALU-3 cells (1-2×10^5 cells/1 cm^2 area) are seeded on filter inserts (Costar transwell polycarbonate filters, 0.4 μm pore size) and cultured (DMEM) for 10-12 days until tight monolayers are formed. Compounds of interest are dissolved in appropriate solvent (DMSO, 10 mM stock solution). Stock solutions are diluted with HTP-4 buffer (128.13 mM NaCl, 5.36 mM KCl, 1 mM MgSO4, 1.8 mM CaCl2, 4.17 mM NaHCO3, 1.19 mM Na2HPO4×7H2O, 0.41 mM NaH2PO4×H2O, 15 mM HEPES, 20 mM glucose, 0.25% BSA, pH 7.4) to prepare the transport solutions (10 μM compound, final DMSO<=0.5%). The transport solution (TL) is applied to the apical or basolateral donor side for measuring A-B or B-A permeability (3 filter replicates), respectively. The receiver side contains the same buffer as the donor side. After 30 min of accommodation, samples are collected at the start t0=0 min and at the end of the experiment tn=90 min from the donor and at 0, 30, 60, and 90 min also from the receiver chamber. Volume removed is replenished by HTP-4 buffer. The compound concentration in the samples is measured by HPLC-MS/MS or scintillation counting. The permeability coefficient (Papp) and efflux ratio are calculated according to: Papp [cm/s]=(concentration receiver [nM]*volume receiver [mL]/time interval [sec])*(1/filter area)*(1/donor concentration [nM]) Efflux ratio or Uptake ratio=Papp,BA/Papp,AB

Mouse kidney M-1 cells = assay: Ussing Chamber assay, short circuit current in M-1 cells; assay type: cell-based; settings: inhibition of amiloride sensitive short circuit current (I_sc), compounds applied to the apical solution, 37° C.
Description: Ussing Chamber: Mouse kidney M-1 cells were cultivated in DMEM containing 5% FCS and 5 μM dexamethasone for 10 to 12 days on polyester transwell filters. Filters were inserted into a teflon-coated well-plate which fit into the ussing chamber system. Prior to measurement the medium of M-1 cells was replaced with Caco-2 transport buffer (Invitrogen, Germany). During measurements, the Ussing chamber temperature was kept at 37° C. Short circuit currents (I_sc) were measured in the voltage-clamp mode using an amplifier with the software package Lab View for data acquisition and analysis. The transepithelial electrical resistance (TEER) was determined by the application of voltage steps of ±5 mV every 5 sec. Compounds were administered at a final concentration of 3 μM or at increasing concentrations (e.g. 1-3-10 μM) to the apical solution. At the end of each experiment the amiloride sensitive I_SC was measured by adding 3 μM amiloride to the apical compartment. Results are expressed as inhibition in percent of the amiloride effect or as IC50.
With the example compounds given above, the following IC50 values given in Table 1 were determined in the Ussing Chamber assay: […]

Row | Papp B→A at 90 min, 10 μM ([1]; exponent E−07) [×10⁻⁶ cm/s] | IC50 (Mouse kidney M-1 cells) [nM] | Papp B→A at 90 min, 10 μM ([1]; exponent E−06 printed in the row below (r3)) [×10⁻⁶ cm/s] | Structure (SMILES)
1 | 0.229 | 25 | – | C[N+]1(C)CCN(CC(=O)N[C@H]2CC[C@H](N/C(N)=N/C(=O)c3nc(Cl)c(N)nc3N)CC2)CC1.[I-] [Example 3.1]
2 | – | 10 | – | CC(C)(C)OC(=O)c1ccc(C(=O)N[C@H]2CC[C@H](N/C(N)=N/C(=O)c3nc(Cl)c(N)nc3N)CC2)cc1 [Example 5.1]
3 | < 0.272 | 6 | – | N/C(=N\C(=O)c1nc(Cl)c(N)nc1N)N[C@H]1CC[C@H](N)CC1 [Example 6.2]
4 | 0.225 | 34 | – | C[C@@H](N)C(=O)N[C@H]1CC[C@H](N/C(N)=N/C(=O)c2nc(Cl)c(N)nc2N)CC1.O=C(O)C(F)(F)F [Example 6.1]
5 | – | 7 | – | COC(=O)CN(C)[C@H]1CC[C@H](N/C(N)=N/C(=O)c2nc(Cl)c(N)nc2N)CC1 [Example 1.1]
6 | – | 10 | – | N=C(N)N[C@H]1CC[C@H](N/C(N)=N/C(=O)c2nc(Cl)c(N)nc2N)CC1 [Example 7]
7 | – | 304 | – | N/C(=N\C(=O)c1nc(Cl)c(N)nc1N)N[C@H]1CC[C@H](NC(=O)CN(CC(=O)O)CC(=O)O)CC1 [Example 2.1]
8 | 0.354 | 25 | – | CN1CCN(S(=O)(=O)N[C@H]2CC[C@H](N/C(N)=N/C(=O)c3nc(Cl)c(N)nc3N)CC2)CC1.O=C(O)C(F)(F)F [Example 8]
9 | – | 31 | < 2.72 | CN(C)CCCN[C@H]1CC[C@H](N/C(N)=N/C(=O)c2nc(Cl)c(N)nc2N)CC1 [Example 4.1]
